Experimental data taken from patent publication US9044480B1, “Compositions and methods for treating HCV” (priority 2011, dated 2015).
pEC50: −log10 of the molar value. Where two headings read alike, the source gives them in different places.

What was measured:
GT 1b replicon WT = assay: HCV subgenomic replicon system, GT 1b WT; assay type: cell-based; conditions: Hepatitis C virus, GT1B
Procedure: (§1) Phenotypic analyses of clinical samples were also performed. For replicon transient transfection assays, RNA was transcribed from linearized plasmid DNA using a TranscriptAid T7 transcription kit (Fermentas) and 15 μg RNA was electroporated into Huh7-derived cells. For EC50 determinations, various concentrations of Compound I were added to cells 1-2 hr after plating and the cells were cultured for 4 days, followed by measurement of luciferase activity with a luciferase assay system kit (Promega).

GT 1a replicon D168V = assay: HCV subgenomic replicon system, GT 1a D168V; assay type: cell-based
Procedure: as §1

GT 1b replicon D168V = assay: HCV subgenomic replicon system, GT 1b D168V; assay type: cell-based
Procedure: as §1

Aqueous solubility = assay type: physicochemical
GT 1a replicon R155G = assay: HCV subgenomic replicon system, GT 1a R155G; assay type: cell-based
Procedure: as §1

GT 1a replicon WT = assay: HCV subgenomic replicon system, GT 1a WT; assay type: cell-based; conditions: Hepatitis C virus, GT1A
Procedure: as §1

[1] = test system: NS3 protease domain from GT 1b HCV-infected subjects in replicon shuttle vector; assay: Replicon transient transfection EC50, NS3 protease domain from subjects cloned into shuttle vector, GT 1b; assay type: cell-based; conditions: for pEC50: Hepatitis C virus, GT1B
From the text: (§2) Viral RNA was isolated from the plasma of HCV-infected patients at baseline (Day 1) and Day 4 by using an automated (Abbott m2000) or manual (QIAgen QIAamp Viral RNA Mini Kit) method. Amplicons containing the NS3-4A region were generated by RT-PCR, and PCR fragments containing the first 250 amino acids of NS3 were generated in a second round of PCR. The NS3 domain fragment was subsequently cloned into pJET (Fermentas) vector for clonal sequencing or digested with restriction enzymes and cloned into the replicon shuttle vector for phenotypic analysis. The lower limit of detection of the RT-PCR amplification method restricted the analysis to patient samples with HCV RNA levels above ˜500-1000 IU/mL.
as §1

GT 1a replicon D168A = assay: HCV subgenomic replicon system, GT 1a D168A; assay type: cell-based
Procedure: as §1

GT 1a replicon R155K = assay: HCV subgenomic replicon system, GT 1a R155K; assay type: cell-based
Procedure: as §1

[2] = test system: NS3 protease domain from GT 1a HCV-infected subjects in replicon shuttle vector; assay: Replicon transient transfection EC50, NS3 protease domain from subjects cloned into shuttle vector, GT 1a; assay type: cell-based; conditions: for Fold Change: GT 1a; for pEC50: Hepatitis C virus, GT1A
From the text: as §2
Phenotypic analyses of clinical samples were also performed. For replicon transient transfection assays, RNA was transcribed from linearized plasmid DNA using a TranscriptAid T7 transcription kit (Fermentas) and 15 μg RNA was electroporated into Huh7-derived cells. […]

Cc1cnc(C(=O)N[C@H]2CCCCC/C=C\[C@@H]3C[C@@]3(C(=O)NS(=O)(=O)C3CC3)NC(=O)[C@@H]3C[C@@H](Oc4nc5ccccc5c5ccccc45)CN3C2=O)cn1 [Compound I, (2R,6S,13aS,14aR,16aS,Z)—N-(cyclopropylsulfonyl)-6-(5-methylpyrazine-2-carboxamido)-5,16-dioxo-2-(phenanthridin-6-yloxy)-1,2,3,5,6,7,8,9,10,11,13a,14,14a,15,16,16a-hexadecahydrocyclopropa[e]pyrrolo[1,2-a][1,4]diazacyclopentadecine-14a-carboxamide]
pEC50 (GT 1b replicon WT): 10.15 | Fold Change (GT 1a replicon D168V; EC50 of GT 1a D168V vs GT 1a WT): 115 | pEC50 (GT 1a replicon D168V; Hepatitis C virus, GT1A): 6.87 | Fold Change (GT 1b replicon D168V; EC50 of GT 1b D168V vs GT 1b WT): 257 | pEC50 (GT 1b replicon D168V; Hepatitis C virus, GT1B): 7.76 | Aqueous solubility (Aqueous solubility): low aqueous solubility | Fold Change (GT 1a replicon R155G; EC50 of GT 1a R155G vs GT 1a WT): 16 | pEC50 (GT 1a replicon R155G; Hepatitis C virus, GT1A): 7.72 | pEC50 (GT 1a replicon WT): 8.92 | pEC50 ([1]; 24 h, read-out: EC50 Day 1, Subject F, GT 1b, 200/100 mg dose group, Day 1 (baseline) sample): 10.40 | pEC50 ([1]; 24 h, read-out: EC50 Day 1, Subject J, GT 1b, 100/100 mg dose group, Day 1 (baseline) sample): 10.40 | pEC50 ([1]; 24 h, read-out: EC50 Day 1, Subject K, GT 1b, 100/100 mg dose group, Day 1 (baseline) sample): 10.15 | pEC50 ([1]; 24 h, read-out: EC50 Day 1, Subject O, GT 1b, 100/100 mg dose group, Day 1 (baseline) sample): 10.30 | pEC50 ([1]; 24 h, read-out: EC50 Day 1, Subject S, GT 1b, 50/100 mg dose group, Day 1 (baseline) sample): 10.22 | pEC50 ([1]; 96 h, read-out: EC50 Day 4, Subject J, GT 1b, 100/100 mg dose group, Day 4 sample): 7.81 | EC50 shift at day 4 relative to baseline ([1]; single GT 1b subject (J), 100/100 mg dose group): 368 fold | Fold Change (GT 1a replicon D168A; EC50 of GT 1a D168A vs GT 1a WT): 59 | pEC50 (GT 1a replicon D168A; Hepatitis C virus, GT1A): 7.15 | Fold Change (GT 1a replicon R155K; EC50 of GT 1a R155K vs GT 1a WT): 43 | pEC50 (GT 1a replicon R155K; Hepatitis C virus, GT1A): 7.29 | Fold Change ([2]; EC50 Day 4 vs Day 1, Subject A, 200/100 mg dose group): 0.9 | Fold Change ([2]; EC50 Day 4 vs Day 1, Subject B, 200/100 mg dose group): 0.8 | Fold Change ([2]; EC50 Day 4 vs Day 1, Subject C, 200/100 mg dose group): 1.0 | Fold Change ([2]; EC50 Day 4 vs Day 1, Subject D, 200/100 mg dose group): 1.1 | Fold Change ([2]; EC50 Day 4 vs Day 1, Subject N, 100/100 mg dose group): 1.1 | Fold Change ([2]; EC50 Day 4 vs Day 1, Subject V, 50/100 mg dose group): 1.7 | pEC50 ([2]; 24 h, read-out: EC50 Day 1, Subject A, GT 1a, 200/100 mg dose group, Day 1 (baseline) sample): 8.88 | pEC50 ([2]; 24 h, read-out: EC50 Day 1, Subject B, GT 1a, 200/100 mg dose group, Day 1 (baseline) sample): 8.87 | pEC50 ([2]; 24 h, read-out: EC50 Day 1, Subject C, GT 1a, 200/100 mg dose group, Day 1 (baseline) sample): 8.51 | pEC50 ([2]; 24 h, read-out: EC50 Day 1, Subject D, GT 1a, 200/100 mg dose group, Day 1 (baseline) sample): 8.62 | pEC50 ([2]; 24 h, read-out: EC50 Day 1, Subject E, GT 1a, 200/100 mg dose group, Day 1 (baseline) sample): 9.24 | pEC50 ([2]; 24 h, read-out: EC50 Day 1, Subject G, GT 1a, 200/100 mg dose group, Day 1 (baseline) sample): 8.57 | pEC50 ([2]; 24 h, read-out: EC50 Day 1, Subject H, GT 1a, 100/100 mg dose group, Day 1 (baseline) sample): 8.81 | pEC50 ([2]; 24 h, read-out: EC50 Day 1, Subject I, GT 1a, 100/100 mg dose group, Day 1 (baseline) sample): 8.84 | pEC50 ([2]; 24 h, read-out: EC50 Day 1, Subject L, GT 1a, 100/100 mg dose group, Day 1 (baseline) sample): 8.55 | pEC50 ([2]; 24 h, read-out: EC50 Day 1, Subject M, GT 1a, 100/100 mg dose group, Day 1 (baseline) sample): 9.04 | pEC50 ([2]; 24 h, read-out: EC50 Day 1, Subject N, GT 1a, 100/100 mg dose group, Day 1 (baseline) sample): 9.24 | pEC50 ([2]; 24 h, read-out: EC50 Day 1, Subject P, GT 1a, 50/100 mg dose group, Day 1 (baseline) sample): 9.09 | pEC50 ([2]; 24 h, read-out: EC50 Day 1, Subject Q, GT 1a, 50/100 mg dose group, Day 1 (baseline) sample): 9.17 | pEC50 ([2]; 24 h, read-out: EC50 Day 1, Subject R, GT 1a, 50/100 mg dose group, Day 1 (baseline) sample): 8.22 | pEC50 ([2]; 24 h, read-out: EC50 Day 1, Subject T, GT 1a, 50/100 mg dose group, Day 1 (baseline) sample): 9.35 | pEC50 ([2]; 24 h, read-out: EC50 Day 1, Subject U, GT 1a, 50/100 mg dose group, Day 1 (baseline) sample): 8.82 | pEC50 ([2]; 24 h, read-out: EC50 Day 1, Subject V, GT 1a, 50/100 mg dose group, Day 1 (baseline) sample): 9.00 | pEC50 ([2]; 24 h, read-out: EC50 Day 1, Subject W, GT 1a, 50/100 mg dose group, Day 1 (baseline) sample): 8.81 | pEC50 ([2]; 96 h, read-out: EC50 Day 4, Subject A, GT 1a, 200/100 mg dose group, Day 4 sample): 8.94 | pEC50 ([2]; 96 h, read-out: EC50 Day 4, Subject B, GT 1a, 200/100 mg dose group, Day 4 sample): 8.97 | pEC50 ([2]; 96 h, read-out: EC50 Day 4, Subject C, GT 1a, 200/100 mg dose group, Day 4 sample): 8.49 | pEC50 ([2]; 96 h, read-out: EC50 Day 4, Subject D, GT 1a, 200/100 mg dose group, Day 4 sample): 8.59 | pEC50 ([2]; 96 h, read-out: EC50 Day 4, Subject H, GT 1a, 100/100 mg dose group, Day 4 sample): 7.99 | pEC50 ([2]; 96 h, read-out: EC50 Day 4, Subject L, GT 1a, 100/100 mg dose group, Day 4 sample): 8.05 | pEC50 ([2]; 96 h, read-out: EC50 Day 4, Subject N, GT 1a, 100/100 mg dose group, Day 4 sample): 9.19 | pEC50 ([2]; 96 h, read-out: EC50 Day 4, Subject P, GT 1a, 50/100 mg dose group, Day 4 sample): 8.05 | pEC50 ([2]; 96 h, read-out: EC50 Day 4, Subject R, GT 1a, 50/100 mg dose group, Day 4 sample): 7.16 | pEC50 ([2]; 96 h, read-out: EC50 Day 4, Subject U, GT 1a, 50/100 mg dose group, Day 4 sample): 7.94 | pEC50 ([2]; 96 h, read-out: EC50 Day 4, Subject V, GT 1a, 50/100 mg dose group, Day 4 sample): 8.77 | pEC50 ([2]; 96 h, read-out: EC50 Day 4, Subject W, GT 1a, 50/100 mg dose group, Day 4 sample): 8.01 | Subjects with increased EC50 values at day 4 relative to baseline ([2]; subjects with Day 4 samples amplified, includes GT 1b subject J): 7 of the 13
